In PubChem BioAssay AID330 (DTP/NCI, 2004):
“And” between values parts separate entries of the source, which are not always exact repeats. Equal entries are not always repeated. Inconclusive results and toxic doses are left out. Peptide text beside a SMILES is read from it.

Test system: P388 leukemia ip, CD2F1 mice, survival T/C
Test: NCI In Vivo Anticancer Drug Screen. Data for tumor model P388 Leukemia (intraperitoneal) in CD2F1 (CDF1) mice
Conditions: endpoint: median survival time, higher = longer survival
In short: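 Mice carrying the transplanted tumor received test compound or vehicle. Survival was recorded in each group, and the value is the treated-group measurement divided by that of the vehicle-treated control group.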

[1] = dose: 12.5 mg/kg/injection, schedule: Q01DX009 (ip), vehicle: saline
[2] = dose: 25.0 mg/kg/injection, schedule: Q01DX009 (ip), vehicle: saline
[3] = dose: 200.0 mg/kg/injection, schedule: Q01DX009 (ip), vehicle: saline
[4] = dose: 60.0 mg/kg/injection, schedule: Q01DX005 (ip), vehicle: Klucel (hydroxypropylcellulose) (HPC)
[5] = dose: 120.0 mg/kg/injection, schedule: Q01DX005 (ip), vehicle: Klucel (hydroxypropylcellulose) (HPC)
[6] = dose: 60.0 mg/kg/injection, schedule: Q01DX005 (ip), vehicle: saline with Tween-80
[7] = dose: 120.0 mg/kg/injection, schedule: Q01DX005 (ip), vehicle: saline with Tween-80
[8] = dose: 240.0 mg/kg/injection, schedule: Q01DX005 (ip), vehicle: saline with Tween-80
[9] = dose: 50.0 mg/kg/injection, schedule: Q01DX009 (ip), vehicle: saline with Tween-80
[10] = dose: 100.0 mg/kg/injection, schedule: Q01DX009 (ip), vehicle: saline with Tween-80
[11] = dose: 200.0 mg/kg/injection, schedule: Q01DX009 (ip), vehicle: saline with Tween-80
[12] = dose: 100.0 mg/kg/injection, schedule: Q04DX002 (ip), vehicle: saline with Tween-80
[13] = dose: 200.0 mg/kg/injection, schedule: Q04DX002 (ip), vehicle: saline with Tween-80
[14] = dose: 400.0 mg/kg/injection, schedule: Q04DX002 (ip), vehicle: saline with Tween-80
[15] = dose: 60.0 mg/kg/injection, schedule: Q01DX005 (ip), vehicle: saline
[16] = dose: 120.0 mg/kg/injection, schedule: Q01DX005 (ip), vehicle: saline
[17] = dose: 240.0 mg/kg/injection, schedule: Q01DX005 (ip), vehicle: saline
[18] = dose: 100.0 mg/kg/injection, schedule: Q01DX009 (ip), vehicle: saline
[19] = dose: 50.0 mg/kg/injection, schedule: Q01DX005 (ip), vehicle: saline
[20] = dose: 100.0 mg/kg/injection, schedule: Q01DX005 (ip), vehicle: saline
[21] = dose: 200.0 mg/kg/injection, schedule: Q01DX005 (ip), vehicle: saline
[22] = dose: 50.0 mg/kg/injection, schedule: Q01DX005 (ip), vehicle: Klucel (hydroxypropylcellulose) (HPC)
[23] = dose: 100.0 mg/kg/injection, schedule: Q01DX005 (ip), vehicle: Klucel (hydroxypropylcellulose) (HPC)
[24] = dose: 200.0 mg/kg/injection, schedule: Q01DX005 (ip), vehicle: Klucel (hydroxypropylcellulose) (HPC)

## CC1=CCCC(C(C)O)O1 (stereo not drawn)
dose: 6.25 mg/kg/injection, schedule: Q01DX009 (ip), vehicle: saline
  T/C: 107 % of control
[1]
  T/C: 104 % of control
[2]
  T/C: 105 % of control
[3]
  T/C: 87 % of control

## CCOC(=O)C(N=Nc1ccc(Br)c(C)c1)C(C)=O (stereo not drawn)
dose: 50.0 mg/kg/injection, schedule: Q01DX005 (ip), vehicle: saline with Tween-80
  T/C: 107 % of control
dose: 100.0 mg/kg/injection, schedule: Q01DX005 (ip), vehicle: saline with Tween-80
  T/C: 93 % of control
dose: 200.0 mg/kg/injection, schedule: Q01DX005 (ip), vehicle: saline with Tween-80
  T/C: 97 % of control

## C/C(=N\N=C(N)N)c1cnc(N)nc1C
[4]
  T/C: 98 % of control
[5]
  T/C: 97 % of control
dose: 240.0 mg/kg/injection, schedule: Q01DX005 (ip), vehicle: Klucel (hydroxypropylcellulose) (HPC)
  T/C: 100 % of control

## O=C(Nc1ccc(Nc2ccccc2)cc1)Nc1cc([N+](=O)[O-])ccc1Cl
[6]
  T/C: 90 % of control
[7]
  T/C: 98 % of control
[8]
  T/C: 103 % of control

## CCN(CC)CCNc1ccc(C)c2sc3c(N)cccc3c(=O)c12
[9]
  T/C: 100 % of control
[10]
  T/C: 113 % of control
[11]
  T/C: 123 % of control

## NCCCn1[nH]c(=O)c2ccncc2c1=O
dose: 100.0 mg/kg/injection, schedule: Q04DX002 (ip), vehicle: saline
  T/C: 97 % of control
dose: 200.0 mg/kg/injection, schedule: Q04DX002 (ip), vehicle: saline
  T/C: 97 % of control
dose: 400.0 mg/kg/injection, schedule: Q04DX002 (ip), vehicle: saline
  T/C: 95 % of control

## CCC(c1ccc(O)cc1)C(CC)c1ccc(O)c(CN(C)C)c1 (stereo not drawn)
dose: 15.0 mg/kg/injection, schedule: Q01DX005 (ip), vehicle: saline with Tween-80
  T/C: 100 % of control
dose: 30.0 mg/kg/injection, schedule: Q01DX005 (ip), vehicle: saline with Tween-80
  T/C: 100 % of control
[6]
  T/C: 96 % of control
[7]
  T/C: 94 % of control

## CCOc1ccc(-n2c(=O)c(N=Nc3ccc(C)cc3)c(O)n(-c3ccc(Br)cc3)c2=S)cc1
[12]
  T/C: 96 % of control
[13]
  T/C: 94 % of control
[14]
  T/C: 90 % of control

## O=C(NC1c2ccccc2CCc2ccccc21)C(F)(F)F
dose: 12.5 mg/kg/injection, schedule: Q01DX009 (ip), vehicle: saline with Tween-80
  T/C: 86 % of control
dose: 25.0 mg/kg/injection, schedule: Q01DX009 (ip), vehicle: saline with Tween-80
  T/C: 117 % of control
[9]
  T/C: 90 % of control
[10]
  T/C: 86 % of control
[11]
  T/C: 94 % of control

## O=C(O)C1C2C=CC(C2)C1c1c2ccc(=O)c(O)c-2oc2c(O)c(O)ccc12 (stereo not drawn)
[6]
  T/C: 102 % of control
[7]
  T/C: 101 % of control
[8]
  T/C: 111 % of control

## Cc1oc2ccccc2c(=O)c1CN1CCN(C)CC1
[15]
  T/C: 101 % of control
[16]
  T/C: 103 % of control

## CCc1cccc(C)c1NC(=O)C(=O)C(C#N)c1ccccc1 (stereo not drawn)
[15]
  T/C: 105 % of control
[16]
  T/C: 108 % of control
[17]
  T/C: 108 % of control

## Nc1nc2ccccc2n1C(=O)C(F)(F)F
dose: 100.0 mg/kg/injection, schedule: Q01DX001 (ip), vehicle: Klucel (hydroxypropylcellulose) (HPC)
  T/C: 98 % of control
dose: 200.0 mg/kg/injection, schedule: Q01DX001 (ip), vehicle: Klucel (hydroxypropylcellulose) (HPC)
  T/C: 116 % of control

## O=C1/C(=C/c2ccccn2)CCc2ccccc21
dose: 50.0 mg/kg/injection, schedule: Q01DX009 (ip), vehicle: saline
  T/C: 102 % of control
[18]
  T/C: 101 % of control
[3]
  T/C: 99 % of control

## N#Cc1ccc(NC(=O)Nc2nncs2)cc1
dose: 12.5 mg/kg/injection, schedule: Q01DX009 (ip), vehicle: distilled water + Tween-80
  T/C: 115 % of control and 116 % of control
dose: 25.0 mg/kg/injection, schedule: Q01DX009 (ip), vehicle: distilled water + Tween-80
  T/C: 122 % of control
dose: 200.0 mg/kg/injection, schedule: Q01DX009 (ip), vehicle: distilled water + Tween-80
  T/C: 104 % of control

## N#CC1(OC2OC(CO)C(O)C(O)C2O)C=CC(O)C1O (stereo not drawn)
dose: 25.0 mg/kg/injection, schedule: Q01DX005 (ip), vehicle: saline
  T/C: 106 % of control
[19]
  T/C: 120 % of control
[20]
  T/C: 111 % of control and 97 % of control
[21]
  T/C: 121 % of control and 97 % of control
dose: 400.0 mg/kg/injection, schedule: Q01DX005 (ip), vehicle: saline
  T/C: 102 % of control

## NOCCCCCON
dose: 50.0 mg/kg/injection, schedule: Q01DX009 (ip), vehicle: Klucel (hydroxypropylcellulose) (HPC)
  T/C: 100 % of control
dose: 100.0 mg/kg/injection, schedule: Q01DX009 (ip), vehicle: Klucel (hydroxypropylcellulose) (HPC)
  T/C: 106 % of control

## CCn1cc(C(=O)NC(C)C(=O)NC(C)P(=O)(O)O)c(=O)c2ccc(C)nc21 (stereo not drawn)
[12]
  T/C: 101 % of control
[13]
  T/C: 102 % of control
[14]
  T/C: 101 % of control

## Cc1ncc2c(c1O)COC2C (stereo not drawn)
[15]
  T/C: 100 % of control
[16]
  T/C: 97 % of control
[17]
  T/C: 99 % of control

## COc1ccc(C2=C(C#N)C(=C(C#N)C#N)NC(N)=C2C#N)cc1
[4]
  T/C: 105 % of control
[5]
  T/C: 91 % of control

## O=S1(=O)CC(SC2CS(=O)(=O)C2)C1
dose: 100.0 mg/kg/injection, schedule: Q01DX001 (ip), vehicle: saline with Tween-80
  T/C: 103 % of control
dose: 200.0 mg/kg/injection, schedule: Q01DX001 (ip), vehicle: saline with Tween-80
  T/C: 101 % of control
dose: 400.0 mg/kg/injection, schedule: Q01DX001 (ip), vehicle: saline with Tween-80
  T/C: 100 % of control

## NC(Cc1ccccc1)C(=O)NC(CCC(=O)O)C(=O)NC(CCC(=O)O)C(=O)O (stereo not drawn) (H-Phe-Glu-Glu-OH; configuration not given here)
[22]
  T/C: 103 % of control
[23]
  T/C: 100 % of control
[24]
  T/C: 96 % of control

## OCC1CCC2CCCCC2N1 (stereo not drawn)
[19]
  T/C: 104 % of control
[20]
  T/C: 102 % of control
[21]
  T/C: 101 % of control

## CCc1ccc2nc3ccccc3c(NCCCCCCNc3c4ccccc4nc4ccc(CC)cc34)c2c1
dose: 0.62 mg/kg/injection, schedule: Q01DX009 (ip), vehicle: other
  T/C: 100 % of control
dose: 1.25 mg/kg/injection, schedule: Q01DX009 (ip), vehicle: other
  T/C: 114 % of control
dose: 2.5 mg/kg/injection, schedule: Q01DX009 (ip), vehicle: other
  T/C: 105 % of control
dose: 5.0 mg/kg/injection, schedule: Q01DX009 (ip), vehicle: other
  T/C: 116 % of control
dose: 10.0 mg/kg/injection, schedule: Q01DX009 (ip), vehicle: other
  T/C: 124 % of control

## Cc1cccc(-c2nnc(N)o2)c1[N+](=O)[O-]
[6]
  T/C: 108 % of control
[7]
  T/C: 108 % of control
[8]
  T/C: 101 % of control

## C=CC(=NC(C)(C)C)Nc1ccccc1C
dose: 0.79 mg/kg/injection, schedule: Q01DX009 (ip), vehicle: saline
  T/C: 99 % of control and 103 % of control and 90 % of control
dose: 1.56 mg/kg/injection, schedule: Q01DX009 (ip), vehicle: saline
  T/C: 101 % of control and 89 % of control
[1]
  T/C: 99 % of control

## O=[N+]([O-])c1cc2ccc3ccoc3c2o1
[22]
  T/C: 90 % of control
[23]
  T/C: 97 % of control
[24]
  T/C: 96 % of control

## O=C1CCC(N2C(=O)c3ccccc3C2=O)C(=O)N1 (stereo not drawn)
[9]
  T/C: 100 % of control
[10]
  T/C: 92 % of control

## CC(=NCc1ccccc1)/C(=N\O)C(=O)Nc1ccc(Cl)cc1
dose: 400.0 mg/kg/injection, schedule: Q04DX003 (ip), vehicle: saline with Tween-80
  T/C: 96 % of control

## C=C1C(=O)OC2/C=C(\C)C3OC3/C=C(/C(=O)OC)C(OC(C)=O)C(OC(=O)C(C)(O)C(C)OC(C)=O)C12 (stereo not drawn)
dose: 1.5 mg/kg/injection, schedule: Q01DX009 (ip), vehicle: Klucel (hydroxypropylcellulose) (HPC)
  T/C: 114 % of control
dose: 12.0 mg/kg/injection, schedule: Q01DX009 (ip), vehicle: Klucel (hydroxypropylcellulose) (HPC)
  T/C: 106 % of control

## O=C1N(CC2CO2)CCN1CC1CO1 (stereo not drawn)
[2]
  T/C: 120 % of control
[18]
  T/C: 155 % of control and 159 % of control
[3]
  T/C: 206 % of control and 215 % of control
